Marks after values point to notes of the source that are not given here.
Experiments:
TNBS-induced colitis [1] = test: TNBS-induced colitis in (SJL/JxBALB/c)F1 mice, various GA treatment modes; assay type: in vivo; conditions: for Decrease in the total macroscopic score versus untreated mice: 5 days after disease induction; for Decrease in the total macroscopic damage versus untreated mice: fed with GA
Description: (§1) Induction of cholitis in mice. TNBS-colitis was induced by rectal instillation of 2,4,6-trinitrobenzene sulfonic acid 5% (w/v), mixed with an equal volume of ethanol, into anesthetized mice (100 μl/mouse). Each treatment group included 6-12 mice. Mice that died before day 4 were considered as treatment casualties and were not taken into consideration.
Assessment of colitis. Weight changes and survival were monitored daily. […]
(§2) Macroscopic colonic scoring. Gross colonic damage was graded according to Reuter et al. (1996), using the combined values of the four standard macroscopic parameters: degree of colonic ulcerations (scale from 0—completely normal, to 10—most severe); intestinal and peritoneal adhesions (0 to 2); diarrhea (0 to 1); and thickness (0 to 1). The total score is the arithmetic sum of the four scores. The evaluation was performed in a blind procedure.
(§3) Microscopic scoring. Proximal, medial, and distal portions of colon were fixed in 10% phosphate-buffered formalin. Paraffin-embedded sections were stained with hematoxylin and eosin. The degree of histological damage and inflammation was graded according to Elson et al. (1996) using the combined values of the four microscopic parameters: extent (scale from 0—completely normal, to 2—involving more than one segment); inflammation (0—none to 3—severe); damage (0 to 3—severe transmural); and regeneration (0—complete re-eptihelization to 3—none). The total score is the arithmetic sum of the four scores. The evaluation was performed in a blind procedure.
(§4) Oral treatment—250 μg/day in PBS, fed by gastric intubation with an 18-gauge stainless steel feeding needle. Unless otherwise stated, feedings were performed on days-7, -5, -3, -1, 0, 2, 4 and 6, relative to the day of TNBS instillation. […]
(§5) To explore whether the beneficial effect of GA on TNBS-induced colitis is restricted to oral administration in the BALB/c strain or represents a more general effect, we studied the ability of GA administered by different routes and dosages to inhibit TNBS-induced colitis in two additional strains of mice.

TNBS-induced colitis [2] = test: TNBS-induced colitis in SJL/J mice, various GA treatment modes; assay type: in vivo; parameters: key to Macroscopic scoring of colon damage: Ulceration (max 10): 0 = completely normal, 10 = most severe ulceration; key to Macroscopic scoring of colon damage: Adhesion (max 2): adhesion score, 0 to 2; key to Macroscopic scoring of colon damage: Diarrhea (max 1): diarrhea score, 0 to 1; key to Macroscopic scoring of colon damage: Thickness (max 1): thickness score, 0 to 1; conditions: for Decrease in the total histological score: statistically insignificant; for Macroscopic scoring of colon damage: Adhesion (max 2) / Macroscopic scoring of colon damage: Diarrhea (max 1) / Macroscopic scoring of colon damage: Thickness (max 1) / Macroscopic scoring of colon damage: Total Score (max 14) / Macroscopic scoring of colon damage: Ulceration (max 10): scoring 5 days after disease induction
Description: as §1
Assessment of colitis. Weight changes and survival were monitored daily. Five to eight days following TNBS instillation, mice were sacrificed and macroscopic as well as microscopic colonic damage was evaluated.
as §2, §3, §4, §5

[3] = test system: TNF-α secretion by spleen and MLN cells; test: TNF-α secretion by spleen and MLN cells (ELISA); assay type: cell-based, mice
Description: FIGS. 5A-5C show the effect of GA on TNF-α secretion in different mouse strains. The responses of normal mice, colitis-induced mice, and colitis-induced mice treated with GA orally or parenterally daily are compared in the BALB/c (FIG. 5A), (SJL/JxBALB/c)F1 (FIG. 5B), and SJL/J (FIG. 5C) strains. Cells from spleens and mesenteric lymph nodes (MLN) were cultured, 7 days after disease induction, with immobilized anti-CD3 (5 μg/ml). After 24 hours, supernatants from six culture wells were pooled and TNF-α was measured by ELISA in duplicates. Results are expressed as TNF-α concentration (pg/ml±SD) and represent one of two similar experiments, using pooled cells from 3-5 mice in each group. # Indicates significant increase in TNF-α in colitic mice in comparison to normal mice. * Indicates significant decrease in TNF-α induced by GA treatment in comparison to untreated colitis induced mice.
Reactivity assays. Spleens and mesenteric lymph nodes (MLN) cells (0.5×10^6 cell/well) were cultured with either GA (50 μg/ml), colon extract (200 μg/ml), immobilized anti-CD3 (5 μg/ml), or PBS control, in a final volume of 250 μl/well (6 wells for each antigen). For proliferation assay, cells were cultured in RPMI 1640 with 10% FCS, pulsed with 1 μCi of [3H] thymidine after 48 h incubation, and harvested 12 h later. For cytokine (TNF-α and TGF-β) assay, cells were cultured in serum-free medium (DCCM-1), supernatants were collected after 72 h, and tested for the cytokines by ELISA using mAbs pairs (R&D Systems, Minneapollis, Minn.) according to the manufacturer's instruction.

[4] = GA daily injections from day −7
[5] = scoring 5 days after disease induction, GA injected daily (from day −7), 2.5 mg/mouse SC
[6] = scoring 5 days after disease induction, GA injected daily (from day −14), 2.5 mg/mouse SC
[7] = scoring 5 days after disease induction, GA injected once day −14, 5 mg/mouse SC in ICFA
[8] = scoring 5 days after disease induction, GA oral every other day (from day −7), 0.25 mg, 8 feedings
[9] = scoring 11 days after disease induction, GA injected daily (from day −7), 2.5 mg/mouse SC
[10] = scoring 11 days after disease induction, GA injected daily (from day −14), 2.5 mg/mouse SC
[11] = scoring 11 days after disease induction, GA injected once day −14, 5 mg/mouse SC in ICFA
[12] = scoring 11 days after disease induction, GA oral every other day (from day −7), 0.25 mg, 8 feedings
[13] = GA injected daily (from day −7), 2.5 mg/mouse SC
[14] = GA oral every other day (from day −7), 0.25 mg, 8 feedings

## glatiramer acetate [GA]
TNBS-induced colitis [1]; [4]
  Decrease in the total macroscopic score versus untreated mice: 3.5 fold
TNBS-induced colitis [1]; GA daily injections from day −14
  Decrease in the total macroscopic score versus untreated mice: 4.6 fold
TNBS-induced colitis [1]; GA injected daily (from day −7)
  Complete weight restoration: ≤ 6 days
TNBS-induced colitis [1]; GA injected daily (from day −7), 1 day after induction
  Weight loss (of original weight): 4%
TNBS-induced colitis [1]; daily injection of GA (starting both 7 and 14 days before disease induction)
  Mortality: completely prevented mortality
TNBS-induced colitis [1]; daily injections (starting either 7 or 14 days before disease induction)
  Reduction in the histological score: 6.6 fold
TNBS-induced colitis [1]; daily-injected mice
  Inhibition of weight loss caused by TNBS colitis: major significant inhibition of weight loss
TNBS-induced colitis [1]; observed 5 days after TNBS inoculation
  Decrease in the total macroscopic damage versus untreated mice: 1.8 fold
TNBS-induced colitis [1]; observed 11 days after TNBS inoculation
  Decrease in the total macroscopic damage versus untreated mice: 1.7 fold
TNBS-induced colitis [1]; oral treatment
  Reduction in the histological score: 1.8 fold
TNBS-induced colitis [1]; oral treatment with GA, by day 8
  Mortality rate: 30%
TNBS-induced colitis [1]; orally-treated mice
  Inhibition of weight loss caused by TNBS colitis: modest, statistically insignificant, inhibition of weight loss
TNBS-induced colitis [1]; [5]
  Macroscopic scoring of colon damage: Adhesion (max 2): 0.8
  Macroscopic scoring of colon damage: Diarrhea (max 1): 0.4
  Macroscopic scoring of colon damage: Thickness (max 1): 0.1
  Macroscopic scoring of colon damage: Total Score (max 14): 2.7*
  Macroscopic scoring of colon damage: Ulceration (max 10): 1.4
TNBS-induced colitis [1]; [6]
  Macroscopic scoring of colon damage: Adhesion (max 2): 0.4
  Macroscopic scoring of colon damage: Diarrhea (max 1): 0.2
  Macroscopic scoring of colon damage: Thickness (max 1): 0.1
  Macroscopic scoring of colon damage: Total Score (max 14): 2.1*
  Macroscopic scoring of colon damage: Ulceration (max 10): 1.4
TNBS-induced colitis [1]; [7]
  Macroscopic scoring of colon damage: Adhesion (max 2): 1.4
  Macroscopic scoring of colon damage: Diarrhea (max 1): 0.3
  Macroscopic scoring of colon damage: Thickness (max 1): 0.3
  Macroscopic scoring of colon damage: Total Score (max 14): 6.4
  Macroscopic scoring of colon damage: Ulceration (max 10): 4.4
TNBS-induced colitis [1]; [8]
  Macroscopic scoring of colon damage: Adhesion (max 2): 1.0
  Macroscopic scoring of colon damage: Diarrhea (max 1): 0.3
  Macroscopic scoring of colon damage: Thickness (max 1): 0.3
  Macroscopic scoring of colon damage: Total Score (max 14): 5.4
  Macroscopic scoring of colon damage: Ulceration (max 10): 3.8
TNBS-induced colitis [1]; [9]
  Macroscopic scoring of colon damage: Adhesion (max 2): 0.0
  Macroscopic scoring of colon damage: Diarrhea (max 1): 0.0
  Macroscopic scoring of colon damage: Thickness (max 1): 0.0
  Macroscopic scoring of colon damage: Ulceration (max 10): 0.1
TNBS-induced colitis [1]; [10]
  Macroscopic scoring of colon damage: Adhesion (max 2): 0.0
  Macroscopic scoring of colon damage: Diarrhea (max 1): 0.0
  Macroscopic scoring of colon damage: Thickness (max 1): 0.0
  Macroscopic scoring of colon damage: Ulceration (max 10): 0.1
TNBS-induced colitis [1]; [11]
  Macroscopic scoring of colon damage: Adhesion (max 2): 1.0
  Macroscopic scoring of colon damage: Diarrhea (max 1): 0.2
  Macroscopic scoring of colon damage: Thickness (max 1): 0.2
  Macroscopic scoring of colon damage: Total Score (max 14): 3.7
  Macroscopic scoring of colon damage: Ulceration (max 10): 2.3
TNBS-induced colitis [1]; [12]
  Macroscopic scoring of colon damage: Adhesion (max 2): 0.6
  Macroscopic scoring of colon damage: Diarrhea (max 1): 0.1
  Macroscopic scoring of colon damage: Thickness (max 1): 0.2
  Macroscopic scoring of colon damage: Total Score (max 14): 3.2
  Macroscopic scoring of colon damage: Ulceration (max 10): 2.3
TNBS-induced colitis [1]; single injection of GA as a depot dose in ICFA
  Effect on macroscopic scores versus untreated controls: small and statistically insignificant
TNBS-induced colitis [2]; [4]
  Reduction in macroscopic score versus untreated control: 2.7 fold
TNBS-induced colitis [2]; daily injection of GA
  Mortality (succumbed): 8%
TNBS-induced colitis [2]; daily-injected mice
  Inhibition of weight loss caused by TNBS colitis: major significant inhibition of weight loss
TNBS-induced colitis [2]; feeding
  Decrease in the total histological score: 0.5 points
TNBS-induced colitis [2]; injection
  Decrease in the total histological score: 1.8 points
TNBS-induced colitis [2]; oral treatment with GA
  Decrease in the total macroscopic score versus untreated mice: 1.7 Points
TNBS-induced colitis [2]; oral treatment with GA, by day 5
  Mortality rate: 18%
TNBS-induced colitis [2]; orally-treated mice
  Inhibition of weight loss caused by TNBS colitis: modest, statistically insignificant, inhibition of weight loss
TNBS-induced colitis [2]; [13]
  Macroscopic scoring of colon damage: Adhesion (max 2): 1.2
  Macroscopic scoring of colon damage: Diarrhea (max 1): 0.5
  Macroscopic scoring of colon damage: Thickness (max 1): 0.5
  Macroscopic scoring of colon damage: Total Score (max 14): 5.7*
  Macroscopic scoring of colon damage: Ulceration (max 10): 3.5
TNBS-induced colitis [2]; [14]
  Macroscopic scoring of colon damage: Adhesion (max 2): 1.8
  Macroscopic scoring of colon damage: Diarrhea (max 1): 0.9
  Macroscopic scoring of colon damage: Thickness (max 1): 0.9
  Macroscopic scoring of colon damage: Total Score (max 14): 10.7
  Macroscopic scoring of colon damage: Ulceration (max 10): 7.1
[3]; SJL/J mice parenterally treated daily with GA
  Effect of GA treatment on TNF-α levels: drastic decrease in TNF-α levels
[3]; all strains, both spleens and MLN, all instances except MLN of SJL/J mice treated orally with GA
  Effect of GA treatment on TNF-α secretion in response to anti-CD3: substantial reduction in TNF-α
[3]; in vitro stimulation of cells by GA (50 μg/ml)
  TNF-α secretion on in vitro stimulation: did not result in secretion of TNF-α

Source: patent US8008258B2, “Cop 1 for treatment of inflammatory bowel diseases” (Yeda Research and Development Co. Ltd., priority 2003, dated 2011)
